In patent publication EP0471516A1, “Tricyclic heterocyclic derivatives” (IMPERIAL CHEMICAL INDUSTRIES PLC, priority 1990, dated 1992):

Assays:
[1] = system: small-cell lung cancer cell line N417A; test: Test (b): growth inhibition of N417A cells in culture, tetrazolium salt method; format: cell-based; conditions: read-out: IC₅₀
Source text: (b) Any assay which determines the ability of a test compound to inhibit the growth of the small-cell lung cancer cell line N417A in cell culture. The test is similar to that described by T. Mosmann (J. Immunol. Meths., 1983, 65, 55-63) but using the tetrazolium salt method of J. Carmichael et al. (J. Cancer Res., 1987, 47, 936-942) to assess the reductive capacity of any viable cells.

[2] = system: topoisomerase-II; test: Test (a): in vitro topoisomerase-II interaction assay, DNA fragmentation of labelled pUC18 plasmid; format: biochemical, human; conditions: test compound at 100 µM; for activity in Test (a): DNA fragmentation with topoisomerase-II from HeLa cells
Procedure: (a) An in vitro assay which determines the ability of a test compound to interact with the enzyme topoisomerase-II, obtained in partially purified form from human HeLa cervical carcinoma cells grown in cell culture. Aliquots of the topoisomerase-II so obtained are added to a mixture of plasmid DNA [0.5 ng of a linearised pUC18 plasmid labelled with [³²P]-ATP], test compound (dissolved in dimethylsulphoxide) and a conventional buffer solution comprising essential salts, bovine serum albumin, ATP, EDTA and 2-mercaptoethanol. The mixture is incubated at 30°C for 10 minutes. Sodium dodecylsulphate and proteinase K are added in turn to give final concentrations of 1% w/v and 2 mg/ml respectively and the mixture is heated to 45°C to effect proteolysis. The resultant mixture is analysed by electrophoresis on a polyacrylamide gel at pH 8.3 and 450 volts for one hour. Thereafter the gel is fixed, dried and autoradiogrammed to determine the extent of DNA fragmentation.

IC50 [1] | etoposide concentration giving activity equivalent to the test compound in Test (a) [2] | activity in Test (a) [2] | SMILES
400 nM | 25 µM | significant activity | COc1cc(Cn2c3ccccc3c(=O)c3ccc(Cl)cc32)cc(OC)c1O [3-chloro-10-(4-hydroxy-3,5-dimethoxybenzyl)-9,10-dihydroacridin-9-one]
3700 nM | 50 µM | significant activity | COc1cc(Cn2c3ccccc3c(=O)c3cccnc32)cc(OC)c1O [10-(4-hydroxy-3,5-dimethoxybenzyl)-5,10-dihydrobenzo[b][1,8]naphthyridin-5-one]
800 nM | 100 µM | significant activity | COc1cc(Cn2c3ccccc3c(=O)c3ccc(S(=O)(=O)CCN(C)C)cc32)cc(OC)c1O [3-(2-dimethylaminoethylsulphonyl)-10-(4-hydroxy-3,5-dimethoxybenzyl)-9,10-dihydroacridin-9-one]
